Consider one molecule from US10400263B2, “Tripeptide rhodamine compound” (Kingston Uninversity Higher Education Corporation, priority 2012, dated 2019).

In the test the test system is S. aureus. The test is described as follows: LGX test on volunteers' nasal swabs with prothrombin or prethrombin. The test is classed as cell-based, Staphylococcus aureus. Conditions: for samples tested positive for S. aureus: threshold 20,000 RFU. As to the method: A population of 113 volunteers were administered a “set” of swabs, comprising two swabs that were pre-moistened with sterile H2O, and one swab that was dry. Each volunteer swabbed the internal periphery of each nostril with the two moistened swabs. Each volunteer then subsequently swabbed the internal periphery of each nostril with the dry swab. The swabs were then placed into amies transport medium to maintain bacterial cell viability. Each sample was anonymous and the study was randomised.
A 100 μL solution of 100 μM LGX with either 1×prothrombin or 1×prethrombin (buffered to pH 8.5 with Tris base and NaCl), was pipetted into sterile 1.5 mL eppendorf tubes. Each moistened swab was placed into the eppendorf tube, and cut to a length to facilitate closure of the tube, with a pair of sterilised scissors. Each tube was subjected to vigorous agitation and the swab tips were removed with sterile forceps. The remaining solution was subsequently pipetted into a microtitre plate (Nunclon 96 well plates). The relative fluorescence of the sample was then recorded every fifteen minutes over a six hour time period (λex.=488 nm and λem=525 nm).
In tandem with this, the remaining swabs (in amies transport medium) were transferred onto pre warmed mannitol salt agar (chromogenic agar for the determination of S. aureus) plates and incubated for up to 48 hours at 37° C. The colour change and colony appearance of the bacteria was noted. […] Following this, 20 separate, discrete colonies were sub-cultured onto nutrient agar and also onto Baird Parker Agar (agar for the determination of S. aureus and S. epidermidis). After an overnight culture at 37° C., colony morphology and appearance was observed (S. aureus colonies are large with a pale “halo” surrounding the colonies, S. epidermidis colonies are small and black).
Additionally, isolates from the nasal swabs cultured on nutrient agar were tested for coagulase activity using a staphylase test kit (oxoid). Loopfuls of bacteria were assayed based on coagulase mediated clumping of fibrinogen-sensitised ovine blood cells.
A final test to determine the identification of the bacteria within each sample, a gram stain was performed. This is based on the presence of peptidoglycan in gram positive cells and their ability to retain crystal violet. S. aureus is a gram positive bacterium. Briefly, a drop of sterile dH2O was placed on a microscope slide and a small amount of culture was applied to this and allowed to air dry. The slide was passed though a flame to fix the bacteria. Crystal Violet was applied to each slide, followed by washing with dH2O. Iodine was then added to the slides, followed by washing with dH2O and subsequent decolourisation with ethanol and another wash with dH2O. Each slide was counterstained with carbol fushchin (for gram negative), rinsed again and allowed to dry.
Each swab sample was examined for the presence of S. aureus based on the above identification techniques, and termed “positive” or “negative”. The results were compared to the finding of the assay of the current invention (LGX test), with either prethrombin or prothrombin, and plotted on a bar chart as a function of relative fluorescence units.

Regarding `CC(C)[C@H](NC(=O)OC(C)(C)C)C(=O)N1CCC[C@H]1C(=O)N[C@@H](CCCNC(=N)N)C(=O)Nc1ccc2c(c1)Oc1cc(NC(=O)[C@H](CCCNC(=N)N)NC(=O)[C@@H]3CCCN3C(=O)[C@@H](NC(=O)OC(C)(C)C)C(C)C)ccc1C21OC(=O)c2ccccc21` (stereo partly drawn) [LGX, Rho-(Arg-Pro-Val-NHBoc)2], the “time in which S. aureus was efficiently detected” value (100 μM LGX with 1×prethrombin) was 15 min and the “time in which S. aureus was efficiently detected” value (100 μM LGX with 1×prothrombin) is 15 min. Moreover, the “samples tested positive for S. aureus” value is given as “approximately 49 samples” (100 μM LGX with 1×prethrombin, 15 minutes); “approximately 49 samples” (100 μM LGX with 1×prethrombin, 60 minutes); “approximately 29 samples” (100 μM LGX with 1×prothrombin, 15 minutes, 113 volunteers); “approximately 34 samples” (100 μM LGX with 1×prothrombin, 60 minutes).
